{"source": "patent US20170360732A1", "about": "“Methods and Drug Therapies for Patency of Occluded Blood Vessels Following Angioplasty” (NephroGenesis, LLC, priority 2014, published 2017)", "origin": "cited, not measured here", "key": {"[1]": {"assay": "not given", "remark": "listed apart in the source"}, "[2]": {"tested_on": "vascular smooth muscle cells", "settings": "100 μM, cultured cells"}, "[3]": {"target": "T1, lysyl oxidase (Homo sapiens, UniProt P28300)", "T1 sequence (P28300 169-417)": "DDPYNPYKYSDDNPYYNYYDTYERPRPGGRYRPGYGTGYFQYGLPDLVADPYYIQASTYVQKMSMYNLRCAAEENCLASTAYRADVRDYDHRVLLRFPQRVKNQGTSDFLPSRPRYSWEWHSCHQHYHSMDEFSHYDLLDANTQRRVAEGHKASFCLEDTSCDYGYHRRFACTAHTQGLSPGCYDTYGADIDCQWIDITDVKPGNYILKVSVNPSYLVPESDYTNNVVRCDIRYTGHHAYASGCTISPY"}, "[4]": {"tested_on": "Type I and Type IV collagen", "settings": "100 μM"}, "[5]": {"tested_on": "Type III collagen"}, "[6]": {"assay": "not given", "remark": "listed apart in the source"}, "[7]": {"tested_on": "peripheral blood monocytes"}, "[8]": {"tested_on": "vascular smooth muscle cells", "settings": "within 30 minutes"}, "[9]": {"tested_on": "arteries injured with balloon angioplasty", "settings": "oral, 6 months, rabbit, vs controls"}, "[10]": {"tested_on": "vessel restenosis following angioplasty", "settings": "28 days, rabbit model of atherosclerosis"}}, "note": "Like-named read-outs stand apart in the source and are kept apart here.", "data": [{"compound": "CC(C)(S)[C@@H](N)C(=O)O", "note": "[D-penicillamine]", "values": [{"measurement": "side effects", "setting": "intravenous administration", "result": "no reported side effects"}, {"measurement": "half-life", "setting": "intravenous, patients with primary biliary cirrhosis", "result": 1.43, "unit": "h"}, {"measurement": "peak plasma level", "setting": "[1]; 750 mg oral, patients", "result": 3.0, "unit": "µg/mL"}, {"measurement": "time to peak plasma level", "setting": "[1]; 750 mg oral, patients", "result": "≤ 3", "unit": "h"}, {"measurement": "plasma levels achieved with typical clinical uses", "setting": "[1]; typical clinical uses of the drug", "result": 3000, "unit": "ng/mL"}]}, {"compound": "O=C1O[C@H]([C@@H](O)CO)C(O)=C1O", "note": "[ascorbic acid]", "values": [{"measurement": "reduction of vascular smooth muscle cell proliferation and migration", "setting": "[2]", "result": "up to 16%"}, {"measurement": "inhibition of lysyl oxidase activity", "setting": "[3]; 0.2 μM", "result": "up to 79%"}, {"measurement": "inhibition of lysyl oxidase activity", "setting": "[3]; 2.0 μM, 1 hour after drug administration", "result": 90, "unit": "%"}, {"measurement": "inhibition of lysyl oxidase activity", "setting": "[3]; 2.0 μM, within 5 minutes", "result": "completely inhibited"}, {"measurement": "inhibition of lysyl oxidase activity", "setting": "[3]; 10 μM, within 15 minutes", "result": 100, "unit": "%"}, {"measurement": "increase of expression of Type I and Type IV collagen", "setting": "[4]", "result": "200%-250%"}, {"measurement": "stimulatory effect upon Type III collagen", "setting": "[5]", "result": "no stimulatory effect"}, {"measurement": "maximum plasma concentration", "setting": "[6]; intravenous infusion, 70 gms/m2 (approximately 140 gms), 1000 mg/min, oncology patients", "result": 50, "unit": "mM"}, {"measurement": "side effects", "setting": "[6]; rapid intravenous infusion, 70-110 gm/M^2, oncology patients", "result": "no significant side effects"}]}, {"compound": "NCCN", "note": "[ethylenediamine]", "values": [{"measurement": "blocking of lysyl oxidase-stimulated monocyte migration", "setting": "[7]", "result": "blocked"}]}, {"compound": "N#CCCN", "note": "[β-aminopropionitrile]", "values": [{"measurement": "blocking of lysyl oxidase-stimulated monocyte migration", "setting": "[7]", "result": "blocked"}, {"measurement": "inhibition of migration of vascular smooth muscle cells", "setting": "[8]", "result": 80, "unit": "%"}, {"measurement": "reduction in cross-sectional diameter of the arteries injured with balloon angioplasty", "setting": "[9]", "result": 60, "unit": "%"}, {"measurement": "reduction of vessel restenosis following angioplasty", "setting": "[10]", "result": 33, "unit": "%"}]}]}
